According to ChEMBL document CHEMBL1201862, “PubChem BioAssay data set” (2004):
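The compound was tested at five concentrations on cells cultured in 96-well plates, with a 48-hour exposure period. GI50 marks 50% less growth.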 Activity calls are given as the source filed them. Cut-off read from the data, not from the text of the source: active = GI50 up to about 1.1 µM and inactive = higher.

Experiments:
Assay in all cases: inhibition of tumour cell growth, NCI panel, 48 h
A549 = system: A549
ACHN = system: ACHN
COLO 205 = system: COLO 205
DLD-1 = system: DLD-1
DMS-114 = system: DMS-114
HCT-116 = system: HCT-116
M14 = system: M14
NCI-H460 = system: NCI-H460
RPMI-8226 = system: RPMI-8226
SF-295 = system: SF-295
SK-OV-3 = system: SK-OV-3
SNB-75 = system: SNB-75
SR = system: SR
SW-620 = system: SW-620
U-251 = system: U-251
UACC-62 = system: UACC-62
HOP-18 = system: HOP-18
TK-10 = system: TK-10
BT-549 = system: BT-549
PC-3 = system: PC-3

SMILES	GI50 (A549)	GI50 (ACHN)	GI50 (COLO 205)	GI50 (DLD-1)	GI50 (DMS-114)	GI50 (HCT-116)	GI50 (M14)	GI50 (NCI-H460)	GI50 (RPMI-8226)	GI50 (SF-295)	GI50 (SK-OV-3)	GI50 (SNB-75)	GI50 (SR)	GI50 (SW-620)	GI50 (U-251)	GI50 (UACC-62)	GI50 (HOP-18)	GI50 (TK-10)	GI50 (BT-549)	GI50 (PC-3)
CC1SC(c2ccccc2)N(Nc2c3ccccc3nc3ccccc23)C1=O (stereo unspecified)	58.5 µM (inactive)	> 100 µM (inactive)	> 100 µM (inactive)	59.2 µM (inactive)	45.5 µM (inactive)	75.3 µM (inactive)	> 100 µM (inactive)	> 100 µM (inactive)	58.7 µM (inactive)	69 µM (inactive)	28.4 µM (inactive)	34.6 µM (inactive)	42.6 µM (inactive)	> 100 µM (inactive)	> 100 µM (inactive)	89.5 µM (inactive)	–	–	–	–
O=C(O)CCC(NC(=O)c1ccc(Nc2cnc3cc(C(F)(F)F)ccc3n2)cc1)C(=O)O (stereo unspecified)	> 100 µM (inactive)	–	> 100 µM (inactive)	> 100 µM (inactive)	> 100 µM (inactive)	> 100 µM (inactive)	–	> 100 µM (inactive)	> 100 µM (inactive)	> 100 µM (inactive)	> 100 µM (inactive)	> 35.6 µM (inactive)	–	> 100 µM (inactive)	> 100 µM (inactive)	> 100 µM (inactive)	> 100 µM (inactive)	–	–	–
CC12CCC3C(CCC4(O)C=CCCC34C=O)C1(O)CC(O)C2c1ccc(=O)oc1 (stereo unspecified)	0.0504 µM (active)	–	0.113 µM (active)	0.0578 µM (active)	< 0.05 µM (active)	0.0573 µM (active)	–	0.0527 µM (active)	0.0697 µM (active)	0.0551 µM (active)	0.109 µM (active)	0.0713 µM (active)	–	0.0741 µM (active)	0.08 µM (active)	0.076 µM (active)	0.0679 µM (active)	–	–	–
CCCCN1C=CN2c3nc4cc(C)c(C)cc4n3C(C(=O)OC)=C(C(=O)OC)C12 (stereo unspecified)	> 100 µM (inactive)	> 100 µM (inactive)	–	> 100 µM (inactive)	> 100 µM (inactive)	> 100 µM (inactive)	> 100 µM (inactive)	> 100 µM (inactive)	> 100 µM (inactive)	> 100 µM (inactive)	> 100 µM (inactive)	> 100 µM (inactive)	> 100 µM (inactive)	> 100 µM (inactive)	> 100 µM (inactive)	> 100 µM (inactive)	> 100 µM (inactive)	> 100 µM (inactive)	–	–
O=[N+]([O-])c1ccc(Nc2cccc3c4cc[nH]c(-c5ccccc5)c-4nc23)c([N+](=O)[O-])c1	> 100 µM (inactive)	–	> 100 µM (inactive)	> 100 µM (inactive)	> 100 µM (inactive)	> 100 µM (inactive)	–	> 100 µM (inactive)	> 100 µM (inactive)	> 100 µM (inactive)	> 100 µM (inactive)	> 100 µM (inactive)	–	> 100 µM (inactive)	> 100 µM (inactive)	93.5 µM (inactive)	> 100 µM (inactive)	–	–	–
COC(=O)C1=C(OC(=O)/C(=C/c2ccc(Cl)cc2)c2ccc(Cl)cc2)C(C(=O)OC)[C@]2(O)[C@@H](C(=O)OC)[C@H]1C[C@@H](c1ccccc1)[C@@H]2C(=O)OC (stereo partly specified)	52.8 µM (inactive)	> 100 µM (inactive)	> 100 µM (inactive)	–	–	> 100 µM (inactive)	30.1 µM (inactive)	> 100 µM (inactive)	–	29.6 µM (inactive)	64 µM (inactive)	> 100 µM (inactive)	–	> 100 µM (inactive)	26.5 µM (inactive)	> 100 µM (inactive)	–	> 100 µM (inactive)	90.4 µM (inactive)	62.5 µM (inactive)
C/C=C/c1cc(=O)c([C@@H]2OC(=O)c3cc(OC)cc(OC)c32)co1 [VERMISTATIN]	58.6 µM (inactive)	45.3 µM (inactive)	22 µM (inactive)	–	21.7 µM (inactive)	23.7 µM (inactive)	58.7 µM (inactive)	58.3 µM (inactive)	35.4 µM (inactive)	39.5 µM (inactive)	–	6.49 µM (inactive)	27.6 µM (inactive)	55.5 µM (inactive)	–	25.9 µM (inactive)	–	57.5 µM (inactive)	–	–
CC(C)=CCc1c(O)ccc2c1OC1c3ccc(O)c(CC=C(C)C)c3OCC21 (stereo unspecified)	7.94 µM (inactive)	–	17.3 µM (inactive)	5.19 µM (inactive)	11.4 µM (inactive)	5.12 µM (inactive)	–	5.15 µM (inactive)	3.28 µM (inactive)	11.6 µM (inactive)	19.2 µM (inactive)	15.9 µM (inactive)	–	6.79 µM (inactive)	7.67 µM (inactive)	5.64 µM (inactive)	17.6 µM (inactive)	–	–	–
COc1cc(CCN(C)C)cc(OC)c1OC	> 100 µM (inactive)	> 100 µM (inactive)	> 100 µM (inactive)	–	–	> 100 µM (inactive)	> 100 µM (inactive)	> 100 µM (inactive)	> 100 µM (inactive)	> 100 µM (inactive)	> 100 µM (inactive)	> 100 µM (inactive)	> 100 µM (inactive)	> 100 µM (inactive)	> 100 µM (inactive)	> 100 µM (inactive)	–	> 100 µM (inactive)	> 100 µM (inactive)	> 100 µM (inactive)
CCCCCCCCCCCCCCCCCC(=O)OCC1OC(OC)C(NC(=O)N(CCCl)N=O)C(O)C1O (stereo unspecified)	18.1 µM (inactive)	15.7 µM (inactive)	30.3 µM (inactive)	28.1 µM (inactive)	–	–	27.8 µM (inactive)	5.96 µM (inactive)	20.3 µM (inactive)	14.9 µM (inactive)	–	13.8 µM (inactive)	9.04 µM (inactive)	14.1 µM (inactive)	> 10 µM (inactive)	2.99 µM (inactive)	32.6 µM (inactive)	38.3 µM (inactive)	–	–
COc1cc(/C=C(\C#N)C(N)=O)cc(Br)c1O	> 100 µM (inactive)	–	–	92 µM (inactive)	–	> 100 µM (inactive)	–	> 100 µM (inactive)	70 µM (inactive)	> 100 µM (inactive)	> 100 µM (inactive)	–	–	> 100 µM (inactive)	> 100 µM (inactive)	–	> 100 µM (inactive)	–	–	–
CCOC(=O)C(C)NC(=O)N(C)C12CC3CC(CC(C3)C1)C2 (stereo unspecified)	197 µM (inactive)	–	140 µM (inactive)	50.7 µM (inactive)	115 µM (inactive)	173 µM (inactive)	–	192 µM (inactive)	125 µM (inactive)	203 µM (inactive)	237 µM (inactive)	77.4 µM (inactive)	–	218 µM (inactive)	308 µM (inactive)	175 µM (inactive)	210 µM (inactive)	–	–	–
Cc1c(C2=NN=C(/N=N/c3c(O)cccc3O)/C2=C/c2ccccc2)c(=O)n(-c2ccccc2)n1C	> 100 µM (inactive)	–	> 100 µM (inactive)	> 100 µM (inactive)	> 100 µM (inactive)	> 100 µM (inactive)	–	> 100 µM (inactive)	> 100 µM (inactive)	> 100 µM (inactive)	> 100 µM (inactive)	> 100 µM (inactive)	–	> 100 µM (inactive)	> 100 µM (inactive)	> 100 µM (inactive)	> 100 µM (inactive)	–	–	–
CN(C)CCNc1c([N+](=O)[O-])cc2c3c(cccc13)C(=O)N(CCN(C)C)C2=O	1.84 µM (inactive)	–	1.11 µM (active)	1.52 µM (inactive)	1.27 µM (inactive)	0.552 µM (active)	–	0.653 µM (active)	2.33 µM (inactive)	1.24 µM (inactive)	1.76 µM (inactive)	1.7 µM (inactive)	–	0.593 µM (active)	1.82 µM (inactive)	1.75 µM (inactive)	1.52 µM (inactive)	–	–	–
CCOC(=O)C1=C(c2ccccc2)C12N(Cc1ccccc1)C(=O)C2(c1ccccc1)c1ccccc1 (stereo unspecified)	–	37.7 µM (inactive)	25.9 µM (inactive)	–	–	36.4 µM (inactive)	43.4 µM (inactive)	28.2 µM (inactive)	3.16 µM (inactive)	41.5 µM (inactive)	47.9 µM (inactive)	–	45.3 µM (inactive)	42.2 µM (inactive)	37.8 µM (inactive)	39.5 µM (inactive)	–	> 100 µM (inactive)	24.8 µM (inactive)	21.3 µM (inactive)
CC1(CO)C(O)CCC2(C)C1CCC1CC3CC12CCC3(O)CO (stereo unspecified)	2.71 µM (inactive)	–	> 100 µM (inactive)	> 100 µM (inactive)	2.34 µM (inactive)	2.39 µM (inactive)	–	0.333 µM (active)	2.31 µM (inactive)	2.19 µM (inactive)	> 100 µM (inactive)	> 51.8 µM (inactive)	–	9.75 µM (inactive)	4.53 µM (inactive)	0.789 µM (active)	18.6 µM (inactive)	–	–	–
O=C1C=CC[C@H]2O[C@@H](COC(=O)Cc3ccccc3)C[C@H]2O1	27.1 µM (inactive)	32.1 µM (inactive)	47.5 µM (inactive)	–	–	–	31.7 µM (inactive)	31.9 µM (inactive)	28.8 µM (inactive)	30.4 µM (inactive)	> 100 µM (inactive)	30.4 µM (inactive)	32 µM (inactive)	24 µM (inactive)	> 10 µM (inactive)	41.9 µM (inactive)	–	25.9 µM (inactive)	–	35.2 µM (inactive)
[O-][Cl+3]([O-])([O-])O.c1ccc(C2=NN2c2ccccc2)cc1	7.96 µM (inactive)	0.927 µM (active)	7.76 µM (inactive)	–	–	–	9.82 µM (inactive)	71.8 µM (inactive)	–	> 100 µM (inactive)	> 100 µM (inactive)	> 100 µM (inactive)	26.7 µM (inactive)	6.01 µM (inactive)	> 100 µM (inactive)	1.21 µM (inactive)	–	> 100 µM (inactive)	> 100 µM (inactive)	6.7 µM (inactive)
